US20040023984A1, “Compounds for the treatment of alzheimer's disease” (priority 1987, published 2004)
Where “and” joins values, the source holds several entries; their conditions need not be identical. Equal entries are not always repeated. Where two headings read alike, the source gives them in different places.

Key:
acetylcholinesterase [1] = molecular target: T1, acetylcholinesterase (Homo sapiens, UniProt P22303); assay: Acetylcholinesterase Inhibition Assay (other cholinesterase activity tests, may be less reliable); type: biochemical; conditions: results may be less reliable
T1 sequence (P22303 32-614, species assumed): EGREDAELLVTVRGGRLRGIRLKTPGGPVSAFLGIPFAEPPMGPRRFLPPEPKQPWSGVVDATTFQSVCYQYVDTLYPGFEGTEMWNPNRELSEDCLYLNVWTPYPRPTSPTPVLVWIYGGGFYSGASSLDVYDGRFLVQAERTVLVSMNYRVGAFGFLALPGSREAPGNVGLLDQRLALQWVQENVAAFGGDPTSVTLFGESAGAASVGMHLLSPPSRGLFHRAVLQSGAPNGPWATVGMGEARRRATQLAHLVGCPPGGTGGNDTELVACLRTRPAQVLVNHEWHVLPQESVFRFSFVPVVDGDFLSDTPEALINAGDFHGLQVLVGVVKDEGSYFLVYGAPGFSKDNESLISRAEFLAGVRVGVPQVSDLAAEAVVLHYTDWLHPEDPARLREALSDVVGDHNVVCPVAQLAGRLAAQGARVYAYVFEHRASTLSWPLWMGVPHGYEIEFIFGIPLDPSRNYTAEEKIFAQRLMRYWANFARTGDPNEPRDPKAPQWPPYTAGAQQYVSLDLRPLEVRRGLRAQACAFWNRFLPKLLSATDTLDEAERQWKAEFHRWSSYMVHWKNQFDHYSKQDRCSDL

acetylcholinesterase [2] = molecular target: T1, acetylcholinesterase; assay: Inhibition of acetylcholinesterase, procedure of Ellman (acetylthiocholine substrate, photometric); type: biochemical; conditions: for cholinesterase inhibition at 10^−5 M: further compounds; for inhibition at 1 µM: read-out: inhibition of acetylcholinesterase at concentration 10^−6 molar; for inhibition at 0.001 µM: read-out: inhibition of acetylcholinesterase at concentration 10^−9 molar
Protocol: The anticholinesterase activity of the compounds prepared in the above examples was assayed by an assay for inhibition of acetylcholinesterase following the procedure of G. Ellman, […], 7:88-95 (1961) Acetylthiocholine serves as substrate since it acts like acetylcholine. Acetylcholinesterase cleaves it to thiocholine and acetate which react with dithiobisnitrobenzoate to form a yellow color which is measured photometrically.
This assay was carried out at dilution of 10^−5 molar
The compounds were tested in the assay described after Example 5 but at different concentrations. The results obtained were as follows:
Further compounds were prepared by methods analogous to those described above and were tested in a cholinesterase assay as described above.

cholinesterase = conditions: Irwin and Smith, Arch. Int. Pharmacodyn. 127:314-330; cited from earlier work
[3] = Solubility noted on isolation of the product; type: physicochemical
[4] = test system: scopolamine induced memory deficit; assay: Scopolamine dementia dark avoidance test (passive avoidance); type: in vivo, male CFW mice
Protocol: Furnished data on the effects of these compound on cholinesterase activity were used to determine doses for testing. […] The two other compounds were tested at 1,3 and 10 mg/kg sc and did antagonize the scopolamine induced deficit.
Training and testing of passive avoidance were conducted in a two-compartment (light/dark) test cage. On the training day, mice were individually placed in the light half of the cage and after entering the dark compartment, were administered a 3 sec 0.4 mA footshock. They were then removed from the test chamber and returned to their home cages. Twenty-four hours later, the animals were again placed in the lighted half of the test cage and the latency to enter the dark compartment was measured.
All animals in each group of 15 naive male CFW mice were injected twice subcutaneously. Thirty minutes prior to training, animals were administered 3 mg/kg scopolamine HBr or its 0.9% NaCl vehicle. Five minutes prior to training, independent groups were administered one of three doses of the test compounds or the distilled water vehicle. One group in each experiment received vehicle twice, another group received scopolamine and the dH2O vehicle; the remaining groups received scopolamine and a test compound.
A cutoff value (CO), defined as the second-longest latency in the scopolamine/vehicle treated group, was used to determine whether a compound was active. If 20% or more of the animals in a treatment group had latencies greater than the CO value, the compound was considered active at that dose.
The three compounds were tested in two separate experiments; the results are presented below in Tables 1 and 2. Doses considered active are marked with an asterisk (*).

[5] = test system: nucleas basalis-lesioned animals; assay: Nucleus basalis model, passive avoidance in shuttle box; type: in vivo, mice; conditions: nucleus basalis model, mice, drug given three and ½ hours before learning trials
Text: The following test provides a good animal model for Alzheimer's disease in humans: A selective lesion is placed in a subcortical nucleus (nucleus basalis of Meynert) with a resultant cortical cholinergic deficiency, similar in magnitude to that seen in early to moderate stage Alzheimer's disease. Numerous behavioral deficits, including the inability to learn and retain new information, characterizes this lesion. Drugs that can normalize these abnormalities would have a reasonable expectation of efficacy in Alzheimer's disease. Haroutunian, V, Kanof P, Davis, K L: Pharmacological alleviations of cholinergic-lesion-induced memory defects in rats. Life Sciences, 37:945-952 (1985).
Galanthamine n-butyl carbamate was tested in the nucleus basalis model for galanthamine discussed in the Hartounian et al paper noted above. In the test, mice were given the drug three and ½ hours before two learning trials in a shuttle box. They are placed in the lighted compartment and receive an electric footshock when they cross into the preferred side, the dark. The next day, they are again placed in the lighted compartment and the time to enter the dark is noted. The latency to enter the dark compartment is the basis for this figure. […] Below 50 mg/kg no side effects were noted.

acetylcholinesterase [6] = molecular target: T1, acetylcholinesterase; assay: biochemical
mice = assay: Profile of Observable Effects (POE), peripheral cholinergic effects; conditions: subcutaneous
Protocol: A number of compounds were also evaluated in a standardized Profile of Observable Effects (POE) which involves administering drug to animal in increasing amounts and observing this for up to two hours to see whether peripheral cholinergic effects such as tremor, lacrimation, salivation, pilo erection, defection or red eye occur.

[7] = 10^−5 molar, read-out: inhibition of acetylcholinesterase at concentration 10^−5
[8] = dilution of 10^−5 molar, read-out: PERCENT INHIBITION OF ACETYLCHOLINESTERASE
[9] = Table 2, scopolamine + 1 mg/kg sc, cut-off 41 seconds
[10] = Table 2, scopolamine + 3 mg/kg sc, cut-off 41 seconds
[11] = Table 2, scopolamine + 10 mg/kg sc, cut-off 41 seconds
[12] = Table 1, scopolamine + 0.3 mg/kg sc, cut-off 38 seconds
[13] = Table 1, scopolamine + 2.0 mg/kg sc, cut-off 38 seconds
[14] = Table 1, scopolamine + 3.0 mg/kg sc, cut-off 38 seconds

Compound: CCCCC(=O)O[C@H]1C=C[C@@]23CCN(C)Cc4ccc(OC)c(c42)O[C@H]3C1 [valeric ester]
- % Inhibition at 10^−6 (acetylcholinesterase [1]): 35%
- % Inhibition at 10^−7 (acetylcholinesterase [1]): 37%
- % Inhibition at −10^−5 (acetylcholinesterase [1]): 41%

Compound: COc1ccc2c3c1OC1CC(I)CCC31CCN(C)C2 (stereo not shown) [2-iodo-2-dehydroxy lycoramine]
- cholinesterase inhibition at 10^−5 M (acetylcholinesterase [2]): 15

Compound: COc1ccc2c3c1OC1CCCC[C@@]31CCN(C)C2 (stereo partly shown) [deoxylycoramine]
- cholinesterase activity (cholinesterase): some activity

Compound: COc1ccc2c3c1O[C@H]1C[C@H](OC(C)=O)C=C[C@@]31CCN(C)C2 [epigalanthamine acetate (from Example 8), epigalanthamine acetate]
- inhibition at 10 µM (acetylcholinesterase [2]; [7]): 21%
- solubility in alcohols [3]: soluble

Compound: COc1ccc2c3c1O[C@H]1C[C@@H](OC(C)=O)C=C[C@@]31CCN(C)C2 [Product of Example 2, Galanthamine acetate]
- inhibition at 10 µM (acetylcholinesterase [2]; [8]): 37%
- # > CO/n [4, 9]: 1/15
- % > CO [4, 9]: 7%
- Mean Latency [4, 9]: 21 s
- # > CO/n [4, 10]: 4/15
- Mean Latency [4, 10]: 38 s
- % > CO ([4]; Table 2, scopolamine + 3 mg/kg sc, cut-off 41 seconds, * = dose considered active): 27* %
- # > CO/n [4, 11]: 3/15
- Mean Latency [4, 11]: 31 s
- % > CO ([4]; Table 2, scopolamine + 10 mg/kg sc, cut-off 41 seconds, * = dose considered active): 20* %
- antagonism of scopolamine induced memory deficit ([4]; doses of 3 and 10 mg/kg sc): active

Compound: COc1ccc2c3c1OC1CC(OC(=O)Nc4cccc5ccccc45)C=CC31CCN(C)C2 (stereo not shown) [Product of Example 4]
- PERCENT INHIBITION OF ACETYLCHOLINESTERASE (acetylcholinesterase [2]; dilution of 10^−5 molar): 60%

Compound: COc1ccc2c3c1OC1C(O)CC=C4C(C2)[N+](C)(C)CCC431.[I-] (stereo not shown) [neopin methiodide]
- cholinesterase activity (cholinesterase): ineffective

Compound: COc1ccc2c3c1O[C@H]1C[C@@H](OC(=O)Nc4ccccc4)C=C[C@@]31CCN(C)C2 [Product of Example 3]
- inhibition at 10 µM (acetylcholinesterase [2]; [8]): 37%

Compound: CCCCCC(=O)O[C@H]1C=C[C@@]23CCN(C)Cc4ccc(OC)c(c42)O[C@H]3C1 [hexanoic ester]
- % Inhibition at 10^−6 (acetylcholinesterase [1]): 30%
- % Inhibition at 10^−7 (acetylcholinesterase [1]): 36%
- % Inhibition at −10^−5 (acetylcholinesterase [1]): 55%

Compound: COc1cc2c3c(c1)OC1C/C(=N/NC(N)=O)C=C[C@@]31CCN(C)C2 (stereo partly shown) [narwedine semicarbazone]
- inhibition of acetylcholinesterase at concentration 10^−5 (acetylcholinesterase [2]; 10^−5 molar): inactive
- solubility in alcohols [3]: soluble

Compound: CCNC(=O)O[C@H]1C=C[C@@]23CCN(C)Cc4ccc(OC)c(c42)O[C@H]3C1 [ethyl carbaxnate]
- % Inhibition at 10^−6 (acetylcholinesterase [1]): 70%
- % Inhibition at 10^−7 (acetylcholinesterase [1]): 9%
- % Inhibition at −10^−5 (acetylcholinesterase [1]): 59%

Compound: COc1ccc2c3c1O[C@H]1C[C@@H](OC(=O)CC(C)C)C=C[C@@]31CCN(C)C2 [iso-valeroyl ester]
- % Inhibition at 10^−6 (acetylcholinesterase [1]): 39%
- % Inhibition at 10^−7 (acetylcholinesterase [1]): 13%
- % Inhibition at −10^−5 (acetylcholinesterase [1]): 33%

Compound: COc1ccc2c3c1O[C@H]1C[C@@H](O[Si](C(C)C)(C(C)C)C(C)C)C=C[C@@]31CCN(C)C2 [Product of Example 7]
- inhibition of acetylcholinesterase at concentration 10^−5 (acetylcholinesterase [2]; 10^−5 molar): 17
- solubility in alcohols [3]: soluble

Compound: COc1ccc2c3c1OC1CC(OC(C)=O)CCC31CC[N+](C)(C)C2.[I-] (stereo not shown) [lycoramine acetate methiodide]
- cholinesterase activity (cholinesterase): ineffective

Compound: COc1cc2c3c(c1)OC1C[C@@H](O)C=C[C@@]31CC[N+](C)(Cc1ccccc1)C2.[Br-] (stereo partly shown) [galanthamine benzyl bromide]
- inhibition at 1 µM (acetylcholinesterase [2]): 77%
- inhibition at 0.001 µM (acetylcholinesterase [2]): 40%
- solubility in alcohols [3]: soluble

Compound: COc1ccc2c3c1OC1CC(N)CCC31CCN(C)C2 (stereo not shown) [2-amino-2-dehydroxy lycoramine]
- cholinesterase inhibition at 10^−5 M (acetylcholinesterase [2]): 17

Compound: COc1ccc2c3c1O[C@H]1C[C@@H](OC(=O)C4CC4)C=C[C@@]31CCN(C)C2 [cyclopropyl carbinol ester]
- % Inhibition at 10^−6 (acetylcholinesterase [1]): 13%
- % Inhibition at 10^−7 (acetylcholinesterase [1]): 0%
- % Inhibition at −10^−5 (acetylcholinesterase [1]): 40%

Compound: COc1ccc2c3c1O[C@H]1CC(O)C=C[C@@]31CCN(C)C2 (stereo partly shown) [Galanthamine, reference compound]
- best dose in passive avoidance test [5]: 3 mg/kg

Compound: CCCOC(N)=O [n-propyl carbamate]
- % Inhibition at 10^−6 (acetylcholinesterase [1]): 50%
- % Inhibition at 10^−7 (acetylcholinesterase [1]): 21%
- % Inhibition at −10^−5 (acetylcholinesterase [1]): 34%

Compound: CC(C)OC(N)=O [isopropyl carbamate]
- % Inhibition at 10^−6 (acetylcholinesterase [1]): 0%
- % Inhibition at 10^−7 (acetylcholinesterase [1]): 0%
- % Inhibition at −10^−5 (acetylcholinesterase [1]): 21%

Compound: deoxydemethyl lycoramine methiodide
- cholinesterase activity (cholinesterase): good activity

Compound: COc1ccc2c3c1O[C@H]1C[C@@H](O)CC[C@@]31CCN(C)C2 [Product of Example 5]
- inhibition at 10 µM (acetylcholinesterase [2]; [8]): 30%

Compound: CNC(=O)Oc1ccc2c3c1OC1CC(O)C=CC31CCN(C)C2 (stereo not shown) [O-demethyl-galanthamine-13-methyl carbamate]
- IC50 (acetylcholinesterase [6]; IC50, acetyl cholinesterase inhibition, S 0.3 mM): 0.002 µM
- IC50 (acetylcholinesterase [6]; IC50, acetyl cholinesterase inhibition, S 5 mM): 0.002 µM
- POE, mice showing peripheral cholinergic effects (mice; 0.31 mg/kg): not noted in any of four mice
- POE, mice showing peripheral cholinergic effects (mice; 0.63 mg/kg): noticeable in one mouse out of four
- POE, mice showing peripheral cholinergic effects (mice; 1 mg/kg): in all four mice

Compound: lycoramine azide
- cholinesterase inhibition at 10^−5 M (acetylcholinesterase [2]): 25

Compound: COC1C=C[C@@]23CCN(C)Cc4ccc(O)c(c42)OC3C1 (stereo partly shown) [childanthine]
- IC50 (acetylcholinesterase [6]; read-out: IC50, acetyl cholinesterase inhibition): 0.31 µM and 0.08 µM

Compound: COc1ccc2c3c1OC1CC(O)C=C[C@@]31CCNC2 (single isomer, unassigned; (-)) [N-demethyl galanthamine, (−) N-demethylgalanthamine]
- # > CO/n [4, 12]: 0/15
- % > CO [4, 12]: 0%
- Mean Latency [4, 12]: 21 s
- # > CO/n [4, 13]: 2/15
- % > CO [4, 13]: 13%
- Mean Latency [4, 13]: 33 s
- # > CO/n [4, 14]: 2/15
- % > CO [4, 14]: 13%
- Mean Latency [4, 14]: 26 s
- antagonism of scopolamine induced memory deficit ([4]; doses of 0.3, 1.0 and 3.0 mg/kg): inactive

Compound: CCCCCCCCOC(N)=O [octyl carbamate]
- % Inhibition at 10^−6 (acetylcholinesterase [1]): 35%
- % Inhibition at 10^−7 (acetylcholinesterase [1]): 16%
- % Inhibition at −10^−5 (acetylcholinesterase [1]): 55%

Compound: COc1ccc2c3c1O[C@H]1C[C@@H](OC(=O)c4ccccc4F)C=C[C@@]31CCN(C)C2 [o-F-benzoic ester]
- % Inhibition at 10^−6 (acetylcholinesterase [1]): 39%
- % Inhibition at 10^−7 (acetylcholinesterase [1]): 37%
- % Inhibition at −10^−5 (acetylcholinesterase [1]): 27%

Compound: COc1ccc2c3c1O[C@H]1C[C@@H](O)C=CC31CC[N+](C)(C)C2.[I-] (stereo partly shown) [galanthamine methiodide]
- solubility in cold water ([3]; cold water): slightly soluble
- solubility in hot water ([3]; hot water): soluble

Compound: COc1ccc2c3c1OC1CC(O)CCC31CCNC2 (stereo not shown) [N-demethyl lycoramine]
- inhibition of acetylcholinesterase at concentration 10^−5 (acetylcholinesterase [2]; 10^−5 molar): inactive

Compound: COc1ccc2c3c1OC1C[C@H](Cl)C=C[C@@]31CCN(C)C2 (stereo partly shown) [Product of Example 10]
- inhibition at 10 µM (acetylcholinesterase [2]; [7]): 73%

Compound: CN1CC[C@@]23C=C[C@H](O)CC2Oc2c(O)ccc(c23)C1 (stereo partly shown) [O-demethyl-galanthamine, O-demethyl galanthamine]
- inhibition at 10 µM (acetylcholinesterase [2]; [7]): ≥ 100%
- inhibition at 1 µM (acetylcholinesterase [2]): 89%
- inhibition at 0.001 µM (acetylcholinesterase [2]): 55%

Compound: 4,5-dehydrogalanthamine
- cholinesterase inhibition at 10^−5 M (acetylcholinesterase [2]): 30
